7 compounds from PubChem BioAssay (NCI) can be followed below.

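Step 1: Grow cells in 96-well plates. Step 2: Expose to compound for 48 hours at 5 concentrations. Step 3: Interpolate endpoints linearly; if unreached, use highest concentration. Here, GI50 denotes the concentration required for 50% inhibition of growth. TGI marks complete inhibition of growth.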

Some test systems named below: HCC-2998 colon; HL-60(TB) leukemia; M14 melanoma; COLO 205 colon; U251 CNS; IGROV1 ovarian; HOP-62 NSCLC; SK-OV-3 ovarian; SN12C renal; UACC-62 melanoma.
What all share (assay): NCI tumour cell line growth inhibition, 48 h

Regarding `CO/N=C(\C)c1cccc(Nc2cc(-c3ccccc3)nc3c(O)cccc23)c1`, the GI50 in the assay with HCC-2998 colon is 2.88 µM; with HL-60(TB) leukemia, 23 µM; in the assay with M14 melanoma, 3.13 µM; with COLO 205 colon it was 18.3 µM; with U251 CNS, 4.38 µM; with IGROV1 ovarian, 2.46 µM. The GI50 in the assay with HOP-62 NSCLC is 3.47 µM; with SK-OV-3 ovarian it was 8.62 µM; with SN12C renal, 5.04 µM; in the assay with UACC-62 melanoma, 6.01 µM. The TGI in the assay with HCC-2998 colon is 12.6 µM; in the assay on HL-60(TB) leukemia, greater than 100 µM; in the assay with M14 melanoma it was 18.2 µM; in the assay on COLO 205 colon, 46.1 µM; in the assay with U251 CNS it was 16.7 µM; in the assay on IGROV1 ovarian, 8.29 µM. Also, the TGI stood at 8.39 µM with HOP-62 NSCLC, 34.5 µM in the assay with SK-OV-3 ovarian, 24.5 µM with SN12C renal and 29.2 µM with UACC-62 melanoma.

Regarding `CC1(C)CCc2cc3c(cc2O1)OCC1c2cc4c(cc2OC31)OCO4` (centres undefined), the TGI in the assay on HCC-2998 colon, in the assay on HL-60(TB) leukemia, in the assay on M14 melanoma, in the assay on COLO 205 colon, in the assay with U251 CNS and with IGROV1 ovarian was greater than 100 µM in each case. The TGI in the assay with HOP-62 NSCLC, in the assay with SK-OV-3 ovarian, in the assay with SN12C renal and in the assay with UACC-62 melanoma was greater than 100 µM throughout.

For `CC(=O)c1cc2c(cc1Nc1c3ccccc3nc3occ(Cl)c13)OCO2`, the GI50 in the assay with HCC-2998 colon is 0.187 µM; in the assay with HL-60(TB) leukemia, 0.0647 µM; in the assay with M14 melanoma it was 0.316 µM; with COLO 205 colon, 0.391 µM; in the assay on U251 CNS, 0.35 µM; in the assay on IGROV1 ovarian, 0.185 µM. The GI50 with HOP-62 NSCLC was 0.291 µM; in the assay with SK-OV-3 ovarian, 0.781 µM; in the assay with SN12C renal, 0.603 µM; in the assay on UACC-62 melanoma, 0.271 µM. In addition, the TGI with HCC-2998 colon is 0.37 µM; in the assay with HL-60(TB) leukemia, 0.57 µM; with M14 melanoma it was 37.9 µM; in the assay on COLO 205 colon, greater than 37.9 µM; in the assay on U251 CNS, greater than 100 µM; in the assay with IGROV1 ovarian it was greater than 100 µM. The TGI was greater than 65.1 µM in the assay on HOP-62 NSCLC, greater than 100 µM with SK-OV-3 ovarian and greater than 100 µM in the assay on SN12C renal.

Take `COc1ccc(-c2nn(-c3cccc(NC(=O)c4ccc5c(c4)OCCO5)c3)cc2-c2ccncc2)cc1Cl`: the GI50 in the assay on HCC-2998 colon is 5.48 µM; in the assay on HL-60(TB) leukemia, 2 µM; with M14 melanoma, 1.57 µM; in the assay with COLO 205 colon, 1.84 µM; in the assay on U251 CNS it was 1.18 µM; with IGROV1 ovarian it was 5.86 µM. For the same compound, the GI50 in the assay with HOP-62 NSCLC is 2.94 µM; with SK-OV-3 ovarian, 3.82 µM; in the assay on SN12C renal it was 2.92 µM; in the assay with UACC-62 melanoma, 1.46 µM. Further, the TGI with HCC-2998 colon was determined as 17.9 µM; in the assay on HL-60(TB) leukemia, 5.96 µM; in the assay on M14 melanoma it was 4.28 µM; in the assay on COLO 205 colon, 4.64 µM; in the assay with U251 CNS, 12.7 µM; with IGROV1 ovarian, 57.2 µM. In addition, the TGI in the assay with HOP-62 NSCLC is 20.8 µM; with SK-OV-3 ovarian it was greater than 100 µM; in the assay on SN12C renal, greater than 100 µM; in the assay on UACC-62 melanoma it was 15.9 µM.

For the compound `COc1cc2nccc(Oc3ccc(NC(=O)C4(C(=O)Nc5ccc(F)cc5)CC4)cc3)c2cc1Oc1ccc(N)cn1`, the GI50 is 2.58 µM with HCC-2998 colon; 2.26 µM with HL-60(TB) leukemia; 2.66 µM in the assay with M14 melanoma; 2.13 µM in the assay with COLO 205 colon; 2.82 µM in the assay with U251 CNS; 1.36 µM with IGROV1 ovarian. Besides, the GI50 was 2.83 µM in the assay with HOP-62 NSCLC, 3.52 µM in the assay on SK-OV-3 ovarian, 1.1 µM in the assay with SN12C renal and 1.33 µM in the assay with UACC-62 melanoma. Moreover, the TGI was determined as 7.49 µM in the assay on HCC-2998 colon; 5.23 µM in the assay with HL-60(TB) leukemia; 34.8 µM with M14 melanoma; 5.64 µM in the assay with COLO 205 colon; 16.6 µM in the assay on U251 CNS; 3.94 µM in the assay on IGROV1 ovarian. For the same compound, the TGI is 84.3 µM in the assay with HOP-62 NSCLC, greater than 100 µM in the assay with SK-OV-3 ovarian, greater than 100 µM with SN12C renal and 7.03 µM with UACC-62 melanoma.

In the case of `CCOC(=O)c1c2c(n(Cc3ccccc3)c1C)-c1ccccc1C(=O)C2=O`, the GI50 with HCC-2998 colon is 6.35 µM; with HL-60(TB) leukemia it was 79.4 µM; in the assay on M14 melanoma, 11.9 µM; in the assay on COLO 205 colon it was 15.6 µM; in the assay on U251 CNS, 8.75 µM; with IGROV1 ovarian it was 4.35 µM. Further, the GI50 is 13.7 µM in the assay on HOP-62 NSCLC, 19.8 µM in the assay with SK-OV-3 ovarian, 15.7 µM in the assay with SN12C renal and 17.8 µM in the assay on UACC-62 melanoma. In addition, the TGI in the assay with HCC-2998 colon is 19.6 µM; in the assay on HL-60(TB) leukemia, greater than 100 µM; in the assay on M14 melanoma it was 24.5 µM; in the assay with COLO 205 colon, 30.6 µM; in the assay with U251 CNS it was 20.8 µM; in the assay with IGROV1 ovarian, 20.1 µM. Also, the TGI was found to be 27.1 µM in the assay with HOP-62 NSCLC, 37.2 µM with SK-OV-3 ovarian, 41.6 µM in the assay on SN12C renal and 34.2 µM in the assay with UACC-62 melanoma.

With `CN(C)c1ccc(/C=C2\N=C(c3ccc([N+](=O)[O-])cc3)OC2=O)cc1`, the TGI in the assay on HCC-2998 colon is 72.4 µM; in the assay with HL-60(TB) leukemia, 87.9 µM; in the assay on M14 melanoma, greater than 100 µM; with COLO 205 colon it was greater than 100 µM; with U251 CNS it was greater than 100 µM; in the assay on IGROV1 ovarian, greater than 100 µM. Moreover, the TGI with HOP-62 NSCLC, with SK-OV-3 ovarian, in the assay with SN12C renal and in the assay on UACC-62 melanoma was greater than 100 µM each time.
